From US20130273649A1, “Culture medium for pluripotent stem cells” (UNIVERSITY OF SOUTHERN CALIFORNIA, priority 2012, published 2013) come the findings set out here.

Holding throughout (format): cell-based
The test system of experiment [1] is mouse EpiSCs. As to the kind of experiment: Mouse EpiSC self-renewal culture. The settings on record: for EpiSC self-renewal / maintenance of undifferentiated state: CD1 mouse EpiSCs, GMEM/10% FBS, no FGF2/activin unless named, CHIR 3 μM, PD0325901 1 μM, XAV939 2 μM, IWR-1 2.5 μM, IWP-2 2.5 μM, Pyrvinium 100 nM. The text has this: We therefore reasoned that if CHIR induces EpiSC differentiation through stabilization of β-catenin, de-stabilization of β-catenin might promote EpiSC self-renewal. We tested this hypothesis by administering the tankyrase inhibitor XAV939 to mouse EpiSC cultures. XAV939-mediated inhibition of tankyrase stabilizes Axin, leading to the formation of the β-catenin destruction complex, composed of GSK3, Axin and adenomatous polyposis coli (APC) (Huang et al., 2009). […] EpiSCs cultured in CHIR/XAV could be routinely passaged by single-cell dissociation and replating onto gelatin-coated dishes, and could be cryo-preserved and recovered at high efficiency by standard techniques.
final concentrations: CHIR99021 (3 μM), PD0325901 (1 μM), XAV939 (Sigma, 2 μM), IWR-1 (Sigma, 2.5 μM), IWP-2 (Stemgent, 2.5 μM), Pyrvinium (Sigma, 100 nM), recombinant human FGF2 (PeproTech, 10 ng/ml), and recombinant human activin A (PeproTech, 10 ng/ml). CHIR99021 and PD0325901 were synthesized in the Division of Signal Transduction Therapy, University of Dundee, UK.
The basal medium for mouse EpiSC culture is the conventional mouse ESC medium, which consists of GMEM (Sigma) supplemented with 10% fetal bovine serum (FBS) (Hyclone), 2 mM L-glutamine (Invitrogen), 1 mM sodium pyruvate (Invitrogen), 1% nonessential amino acids (Invitrogen), and 0.1 mM (3-mercaptoethanol. Mouse EpiSCs were derived and maintained in the basal medium supplemented with FGF2/activin, CHIR/XAV, or CHIR/IWR-1. The basal medium for rat EpiSC culture is N2B27 (Tong et al., 2011), which was prepared by mixing 500 ml of DMEM/F12 (Invitrogen) with 500 ml of Neurobasal™ medium (Invitrogen), and adding 5 ml of N2 (Invitrogen), 10 ml of B27 (Invitrogen), 5 ml of Glutamax™ (Invitrogen), and 1 ml of 0.1 M β-mercaptoethanol (Sigma). The basal medium for human ESC culture consists of Knockout™ DMEM/F12 supplemented with 20% KSR (Invitrogen), 1% nonessential amino acids, 2 mM L-glutamine, and 0.1 mM (3-mercaptoethanol. Human ESCs were cultured in the basal medium supplemented with FGF2, CHIR/XAV, or CHIR/IWR-1.
Post-implantation epiblasts were isolated from mouse or rat embryos and dissociated into small clumps as previously described (Chenoweth and Tesar, 2010). Epiblast fragments were placed into 4-well plates pre-coated with 0.1% gelatin (for mouse epiblasts) or pre-seeded with γ-irradiated mouse embryonic fibroblasts (MEFs) (for rat epiblasts) and cultured in either the FGF2/activin or the CHIR/XAV conditions. Emerging EpiSCs were trypsinized and expanded every 2-3 days at a subculture ratio of 1:4. Animal experiments were performed according to the investigator's protocols approved by the University of Southern California Institutional Animal Care and Use Committee.

Experiment [2] deals with Axin2. Briefly: Western blot of Axin2 in mouse EpiSCs. The settings on record: CD1 mouse EpiSCs treated 12 h.
Experiment [3] has as its system β-catenin/TCF-responsive TOPFlash reporter. As to the kind of experiment: TOPFlash reporter assay in mouse EpiSCs. Conditions: CD1 mouse EpiSCs, 12 hours. The protocol:
(A) TOPFlash™ assay in CD1 mouse EpiSCs treated with the indicated inhibitors for 12 hours. Data represent mean±s.d. of three biological replicates. (B) Representative phase contrast images of CD1 mouse EpiSCs cultured in the indicated conditions for 7 days. (C) Western blot analysis of CD1 mouse EpiSCs treated with the indicated inhibitors for 12 h. (D) qRT-PCR analysis of Axin1 and Axin2 mRNA levels in CD1 mouse EpiSCs stably transfected with Axin1 shRNA or Axin2 shRNA. Data represent mean±s.d. of three biological replicates. (E) Colony assay on CD1 mouse EpiSCs stably transfected with scramble, Axin1, or Axin2 shRNAs. Cells were plated onto a 6-well plate at a density of 5,000 cells/well and cultured in CHIR/IWR-1. Colonies were counted 7 days after plating. Data represent the total combined numbers of colonies from two independent experiments in which each shRNA-transfected group was cultured in one well of a 6-well plate. (F) Representative phase contrast images of CD 1 mouse EpiSCs stably transfected with the indicated shRNAs and cultured in CHIR/IWR-1 for 7 days. (G) Western blot analysis of CD1 mouse EpiSCs overexpressing Flag-tagged Axin1 or Axin2. (H) Representative phase contrast images of CD1 mouse EpiSCs overexpressing Axin1 or Axin2 and cultured in CHIR for 7 days. Axin2-overexpressing EpiSCs could be continually passaged in CHIR alone. Scale bars, 50 μm (B, F and H)
Next, we investigated the mechanism by which CHIR/XAV promotes EpiSC self-renewal. By inhibiting GSK3 phosphorylation of β-catenin, CHIR stabilizes β-catenin, which then trans-locates to the nucleus and forms complexes with DNA-binding proteins, including TCFs, to activate transcription (Logan and Nusse, 2004). […]
For quantifying relative Oct3/4 enhancer activities, pGL3-Oct4 DE and pGL3-Oct4 PE plasmids (gifts from Hans Schöler's lab) were co-transfected with the Renilla vector, using the Amaxa™ Transfection Kit (Lonza). […] For quantifying relative β-catenin/Tcf transcriptional activity, pGL2-SuperTOP™ plasmid (gift from Randall Moon) was co-transfected with the Renilla vector and assayed accordingly.

Turning to `Oc1nc(-c2ccc(C(F)(F)F)cc2)nc2c1CSCC2` [XAV939, 3,5,7,8-Tetrahydro-2-[4-(trifluoromethyl)phenyl]-4H-thiopyrano[4,3-d]pyrimidin-4-one], in experiment [1], the “EpiSC self-renewal / maintenance of undifferentiated state” value is “differentiated after passaging”. Further, the “time EpiSCs remained undifferentiated” value in experiment [1] (XAV939 alone, before passaging) is reported as “approximately 1 week”. The “amount of Axin2 protein” value in experiment [2] is given as “significantly increased”. For the same compound, in experiment [3] (added to CHIR), the “effect on TOPFlash activity induced by CHIR” value is “abolished the TOPFlash activity induced by CHIR”.

Regarding `Cc1c[nH]c(-c2cnc(NCCNc3ccc(C#N)cn3)nc2-c2ccc(Cl)cc2Cl)n1` [CHIR99021, 6-((2-((4-(2,4-Dichlorophenyl)-5-(4-methyl-1H-imidazol-2-yl)pyrimidin-2-yl)amino)ethyl)amino)nicotinonitrile], the “self-renewal of β-catenin−/− EpiSCs overexpressing Axin2” value in experiment [1] (3 μM CHIR after removal of FGF2/activin) is given as “differentiated after the removal of FGF2/activin, even in the presence of CHIR”. The “self-renewal of Axin1-overexpressing EpiSCs” value in experiment [1] (Axin1-EpiSCs, CHIR after removal of FGF2/activin) was “rapidly differentiated”. Besides, the “self-renewal of Axin2-overexpressing EpiSCs” value in experiment [1] (Axin2-EpiSCs, CHIR alone after removal of FGF2/activin) is “sufficient to support robust and long-term expansion of undifferentiated Axin2-EpiSCs”. For the same compound, in experiment [1], the “EpiSC self-renewal / maintenance of undifferentiated state” value was “rapidly differentiated or died”. Further, in experiment [2], the “amount of Axin2 protein” value is reported as “elevated”. In experiment [3], the TOPFlash reporter activity entry is on record as “strongly induced”.
